# Patent US12371454B2, “Cyclic peptide compound having Kras inhibitory action” (priority 2019, dated 2025)
# Starred links: 1 amine or outer side, 2 acyl side, 3 side chain; linkers in the order of their positions; H or OH if unused. Positions of bridges follow the written chain, without caps; N, C: chain ends. Non-standard residues stand in square brackets, D forms with d. Residues, ends and D or L forms follow the SMILES beside them. *: point of attachment. NMeAbu(3,3-F2-piperidino) = CN[C@@H](CCN1CCCC(F)(F)C1)C(=O)O; hPhe(3-Cl-4-CF3) = N[C@@H](CCc1ccc(C(F)(F)F)c(Cl)c1)C(=O)O; X29 = N#Cc1cc(CC[C@H](N[*:1])C(=O)[*:2])cc(Cl)c1Cl; 3Oxa8azabicyclo(3.2.1)octane = C1CC2COCC1N2*; NMePhe(4-Me) = CN[C@@H](Cc1ccc(C)cc1)C(=O)O; NMedβ3hAla = C[C@H](CC(=O)[*:2])N(C)[*:1]; NMeAla(cPent) = CN[C@@H](CC1CCCC1)C(=O)O; NMeGly(cPent) = CN[C@H](C(=O)O)C1CCCC1; NMeCha = CN[C@@H](CC1CCCCC1)C(=O)O; NMeCba = CN[C@@H](CC1CCC1)C(=O)O; NMeChg = CN[C@H](C(=O)O)C1CCCCC1; NMeI = CC[C@H](C)[C@H](NC)C(=O)O; NMeD = CN[C@@H](CC(=O)O)C(=O)O; NMeL = CN[C@@H](CC(C)C)C(=O)O; NMeNva = CCC[C@H](NC)C(=O)O; NMeV = CN[C@H](C(=O)O)C(C)C; NMeAbu = CC[C@H](NC)C(=O)O; dIva = CC[C@@](C)(N)C(=O)O; NMeA = CN[C@@H](C)C(=O)O; Piperidide = C1CCN(*)CC1; Pyrrolidide = C1CCN(*)C1; Ac5c = NC1(C(=O)O)CCCC1; Aze = O=C(O)[C@@H]1CCN1; Sar = CNCC(=O)O
# Tests used:
# [1] = test system: Human pancreatic cancer cell line AsPC-1; test: Measurement of AsPC-1 cell growth inhibition (AsPC-1 CGI); format: cell-based; conditions: 96 h
# Method in brief: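 AsPC-1 cells in 15% FBS RPMI-1640 were exposed to test compound for 96 hours at 37° C, with CellTiter-Glo as endpoint.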
# [2] = biological target: T1, Kras and SOS1 (biotin-tagged human Kras loaded with GDP, His-tagged human SOS1) (Homo sapiens, UniProt P01116, G12D); test: Protein-protein interaction inhibition between Kras and SOS1 (KrasGl2D-SOS PPI) using AlphaScreen; format: binding; conditions: AlphaScreen; biotin-tagged human Kras loaded with GDP, His-tagged human SOS1; read-out: KRAS G12D-SOS PPI IC50
# T1 construct: made in house; host or cells: E. coli (stated for Kras only)
# Method in brief: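 Donor beads (nickel) hold His-SOS1; acceptor beads (streptavidin) hold biotin-Kras bound to GDP. Signal measured at 520-620 nm following 680 nm excitation.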
# T1 sequence (P01116 1-188 isoform P01116-2 G12D): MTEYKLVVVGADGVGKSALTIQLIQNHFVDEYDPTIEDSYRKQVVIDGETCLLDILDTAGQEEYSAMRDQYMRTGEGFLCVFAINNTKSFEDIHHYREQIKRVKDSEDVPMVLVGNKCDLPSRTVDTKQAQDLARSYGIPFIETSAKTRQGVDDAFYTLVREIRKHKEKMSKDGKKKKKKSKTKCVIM
Compound,IC50 [1],IC50 [2]
CC[C@H](C)[C@@H]1NC(=O)[C@H](C)N(C)C(=O)C[C@@H](C(=O)N2CCCCC2)N(C)C(=O)[C@H](C2CCCC2)N(C)C(=O)C2(CCCC2)NC(=O)[C@@H]2CCCN2C(=O)[C@H](CCc2ccc(C(F)(F)F)c(Cl)c2)NC(=O)CN(C)C(=O)[C@H](CC2CCCCC2)N(C)C(=O)CN(C)C(=O)CN(C)C1=O [Compound 246] ([NMeA]I[Sar][Sar][NMeCha][Sar][hPhe(3-Cl-4-CF3)]P[Ac5c][NMeGly(cPent)][NMeD]-Piperidide; lactam N-11),50 to 100 nM,0.3 nM
CC[C@H](C)[C@@H]1NC(=O)[C@H](C)N(C)C(=O)C[C@@H](C(=O)N2CCCCC2)N(C)C(=O)[C@H](C2CCCCC2)N(C)C(=O)C2(CCCC2)NC(=O)[C@@H]2CCCN2C(=O)[C@H](CCc2cc(Cl)c(Cl)c(C#N)c2)NC(=O)CN(C)C(=O)[C@H](CC2CCCCC2)N(C)C(=O)CN(C)C(=O)CN(C)C1=O [Compound 2075] ([NMeA]I[Sar][Sar][NMeCha][Sar][X29]P[Ac5c][NMeChg][NMeD]-Piperidide; lactam N-11),> 500 nM,1.1 nM
CC[C@H](C)[C@@H]1NC(=O)[C@H](CC(C)C)N(C)C(=O)C[C@@H](C(=O)N(C)C)N(C)C(=O)[C@H](C2CCCC2)N(C)C(=O)C2(CCCC2)NC(=O)[C@H](C)NC(=O)[C@H](CCc2ccc(C(F)(F)F)c(Cl)c2)NC(=O)CN(C)C(=O)[C@H](CC2CCCCC2)N(C)C(=O)[C@@H]2CCN2C(=O)[C@H](C)N(C)C1=O [Compound 575] ([NMeL]I[NMeA][Aze][NMeCha][Sar][hPhe(3-Cl-4-CF3)]A[Ac5c][NMeGly(cPent)][NMeD]-NMe2; lactam N-11),100 to 500 nM,0.56 nM
CCC[C@H]1C(=O)N[C@@H]([C@@H](C)CC)C(=O)N(C)CC(=O)N(C)CC(=O)N(C)[C@@H](CC2CCCCC2)C(=O)N(C)CC(=O)N[C@@H](CCc2ccc(C(F)(F)F)c(Cl)c2)C(=O)N2CCC[C@H]2C(=O)NC2(CCCC2)C(=O)N(C)[C@@H](C2CCCCC2)C(=O)N(C)[C@H](C(=O)N2C3CCC2COC3)CC(=O)N1C [Compound 1933] ([NMeNva]I[Sar][Sar][NMeCha][Sar][hPhe(3-Cl-4-CF3)]P[Ac5c][NMeChg][NMeD]-{3Oxa8azabicyclo(3.2.1)octane}; lactam N-11),50 to 100 nM,0.59 nM
CC[C@H](C)[C@@H]1NC(=O)[C@H](CC(C)C)N(C)C(=O)C[C@@H](C)N(C)C(=O)[C@H](C(C)C)N(C)C(=O)[C@@](C)(CC)NC(=O)[C@@H]2CCCN2C(=O)[C@H](CCc2ccc(C(F)(F)F)c(Cl)c2)NC(=O)CN(C)C(=O)[C@H](CC2CCCCC2)N(C)C(=O)CN(C)C(=O)CN(C)C1=O [Compound 223] (cyclo(I[Sar][Sar][NMeCha][Sar][hPhe(3-Cl-4-CF3)]P[dIva][NMeV][NMedβ3hAla][NMeL])),100 to 500 nM,18 nM
"CC[C@H](C)[C@@H]1NC(=O)[C@H](CC(C)C)N(C)C(=O)C[C@@H](C(=O)N(C)C)N(C)C(=O)[C@H]([C@@H](C)CC)N(C)C(=O)C2(CCCC2)NC(=O)[C@H](CCN2CCCC(F)(F)C2)N(C)C(=O)[C@H](CCc2ccc(C(F)(F)F)c(Cl)c2)NC(=O)CN(C)C(=O)[C@H](Cc2ccc(C)cc2)N(C)C(=O)[C@@H]2CCN2C(=O)[C@H](C)N(C)C1=O [Compound 818] ([NMeL]I[NMeA][Aze][NMePhe(4-Me)][Sar][hPhe(3-Cl-4-CF3)][NMeAbu(3,3-F2-piperidino)][Ac5c][NMeI][NMeD]-NMe2; lactam N-11)",20 to 50 nM,1.2 nM
CC[C@H](C)[C@@H]1NC(=O)[C@H](CC)N(C)C(=O)C[C@@H](C(=O)N2CCCC2)N(C)C(=O)[C@H](C2CCCCC2)N(C)C(=O)C2(CCCC2)NC(=O)[C@@H]2CCCN2C(=O)[C@H](CCc2ccc(C(F)(F)F)c(Cl)c2)NC(=O)CN(C)C(=O)[C@H](CC2CCCC2)N(C)C(=O)CN(C)C(=O)CN(C)C1=O [Compound 1931] ([NMeAbu]I[Sar][Sar][NMeAla(cPent)][Sar][hPhe(3-Cl-4-CF3)]P[Ac5c][NMeChg][NMeD]-Pyrrolidide; lactam N-11),100 to 500 nM,0.56 nM
CC[C@H](C)[C@@H]1NC(=O)[C@H](CC(C)C)N(C)C(=O)C[C@@H](C(=O)N2CCCCC2)N(C)C(=O)[C@H](C(C)C)N(C)C(=O)C2(CCCC2)NC(=O)[C@@H]2CCCN2C(=O)[C@H](CCc2ccc(C(F)(F)F)c(Cl)c2)NC(=O)CN(C)C(=O)[C@H](CC2CCC2)N(C)C(=O)[C@@H]2CCN2C(=O)[C@H](C)N(C)C1=O [Compound 1716] ([NMeL]I[NMeA][Aze][NMeCba][Sar][hPhe(3-Cl-4-CF3)]P[Ac5c][NMeV][NMeD]-Piperidide; lactam N-11),100 to 500 nM,7.9 nM
